Measured values taken from patent EP2739296B1, “PLANT MATERIAL FROM OXYDENDRUM ARBOREUM FOR COSMETIC USE” (Sederma, priority 2011, dated 2013).

Tests used:
Assay type in all cases: cell-based
[1] = tested on: collagen I; assay: Collagen I synthesis by normal human fibroblasts (immuno-labeling); details: positive control, concentration not given; NHF, 7 days; p<0.01
Experimental: Normal human fibroblasts (NHF) are cultivated in plate MW24 for 24 hours. The cells are in contact or not of test products at various concentrations for 7 days. The synthesis of collagen I is then quantified by immuno-labeling fixed on the layer. Table 7: increase of collagen I on NHF in the presence of the extract of Oxydendrum arboretum cell culture compared with control. (n=4 wells/ 20 photos)

[2] = tested on: Human melanocytes; assay: Melanin synthesis in human melanocytes; details: positive control, concentration not given; 5 days of culture; n=5; p<0.01
Experimental: Human melanocytes were seeded in 24-well plates. After 24 h of attachment, the cells are in contact with the test products. After 5 days of culture, the layers are rinsed, the total melanins are extracted in sodium hydroxide and assayed spectrophotometrically at 490 nm. For tyrosinase, an identical culture protocol is followed and then the enzyme is extracted from the cells and DOPA oxidase activity is measured spectrophotometrically at 37°C with a solution of L-DOPA to 0.2%. The data are normalized using a viability assay. Table 9: inhibition of melanogenese in the presence of the extract of Oxydendrum arboreum cell culture compared with control. (n=5)

[3] = molecular target: T1, tyrosinase (Homo sapiens, UniProt P14679); assay: Tyrosinase (DOPA oxidase) activity extracted from human melanocytes; details: positive control, concentration not given; 5 days of culture; n=5; p<0.01
T1 sequence (P14679 19-529): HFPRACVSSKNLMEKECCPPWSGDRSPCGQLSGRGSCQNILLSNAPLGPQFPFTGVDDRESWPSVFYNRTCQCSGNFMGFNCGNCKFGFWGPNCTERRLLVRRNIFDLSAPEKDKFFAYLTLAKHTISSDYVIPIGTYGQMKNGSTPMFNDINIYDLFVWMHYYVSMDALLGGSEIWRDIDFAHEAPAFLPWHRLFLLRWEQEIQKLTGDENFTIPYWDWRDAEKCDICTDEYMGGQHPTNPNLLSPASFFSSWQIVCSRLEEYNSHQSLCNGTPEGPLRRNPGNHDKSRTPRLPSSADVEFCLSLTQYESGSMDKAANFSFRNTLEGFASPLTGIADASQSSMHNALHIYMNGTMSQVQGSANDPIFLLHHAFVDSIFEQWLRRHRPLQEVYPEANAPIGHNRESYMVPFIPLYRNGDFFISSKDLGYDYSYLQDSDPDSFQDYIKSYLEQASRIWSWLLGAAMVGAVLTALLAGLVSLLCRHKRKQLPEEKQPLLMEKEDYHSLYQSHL

Row | Tyrosinase (% Change / Control) [3] [%] | SMILES | Collagen I Synthesis % change / control [1] | Melanin (% Change / Control) [2] [%]
1 | – | O=C1O[C@H]([C@@H](O)CO)C(O)=C1O [Vitamin C] | +236% ; p<0.01 | –
2 | -48 | OC[C@H]1O[C@@H](Oc2ccc(O)cc2)[C@H](O)[C@@H](O)[C@@H]1O [Arbutin] | – | -56
